In patent publication US20120058208A1 (SYNTHITE INDUSTRIES LTD., priority 2010, published 2012):

Tests used:
HCT-116 human xenograft = test: In vivo anti-cancer activity in human colorectal (HCT-116) xenograft model in SCID mice
Method: Human colorectal (HCT-116) xenograft model in SCID mice
Five-week-old female mice purchased from the Advanced Centre for Treatment, Research and Education in Cancer (ACTREC) were used for in vivo experiments. The Institutional Animal Ethics Committee (IAEC) approved the in vivo study. Animals were injected with 1×10^6 HCT-116 cells subcutaneously in the flank region. Animals were monitored daily during the period between inoculation and palpable tumor growth. Tumor size was measured with a digital Vernier caliper and tumor-bearing mice were randomized into control and treatment groups (n=8), when the tumor volume was attained ˜100 mm^3. […] Tumor volume and was body weight was measured twice weekly. The following formula was used to calculate the tumor volume: Tumor volume=[…]. Percent reduction in tumor growth was calculated with respect to the Vehicle treated group.

[1] = given dose 50 mg/kg; adjuvant given with curcumin; cited from earlier work

Compound | % Redn. (percent reduction in tumor growth with respect to the Vehicle treated group) (HCT-116 human xenograft; 150 mg/kg oral once daily for 28 days) [%] | Tumor volume, Mean ± SE, Day 0 (HCT-116 human xenograft; 150 mg/kg oral once daily, Day 0) [mm^3] | Tumor volume, Mean ± SE, Day 4 (HCT-116 human xenograft; 150 mg/kg oral once daily, Day 4) [mm^3] | Tumor volume, Mean ± SE, Day 8 (HCT-116 human xenograft; 150 mg/kg oral once daily, Day 8) [mm^3] | Tumor volume, Mean ± SE, Day 12 (HCT-116 human xenograft; 150 mg/kg oral once daily, Day 12) [mm^3] | Tumor volume, Mean ± SE, Day 16 (HCT-116 human xenograft; 150 mg/kg oral once daily, Day 16) [mm^3] | Tumor volume, Mean ± SE, Day 19 (HCT-116 human xenograft; 150 mg/kg oral once daily, Day 19) [mm^3] | Tumor volume, Mean ± SE, Day 22 (HCT-116 human xenograft; 150 mg/kg oral once daily, Day 22) [mm^3] | Tumor volume, Mean ± SE, Day 26 (HCT-116 human xenograft; 150 mg/kg oral once daily, Day 26) [mm^3] | Tumor volume, Mean ± SE, Day 29 (HCT-116 human xenograft; 150 mg/kg oral once daily, Day 29) [mm^3] | enhancement of the bioavailability of curcumin [1] [%]
O=C(CCCCCCC(=O)Nc1ccccc1)NO [Vorinostat] | 47 | 131.6 ± 23.1 | 236.6 ± 42.7 | 334.4 ± 52.3 | 460.6 ± 76.0 | 544.6 ± 79.1 | 669.6 ± 107.0 | 726.0 ± 120.8 | 916.6 ± 157.9 | 979.1 ± 157.2 | –
CCCCC[C@H](O)CC(=O)CCc1ccc(O)c(OC)c1 [gingerol] | – | – | – | – | – | – | – | – | – | – | 43
O=C(/C=C/C=C/c1ccc2c(c1)OCO2)N1CCCCC1 [piperine] | – | – | – | – | – | – | – | – | – | – | 33
